Assay results from patent US20070179152A1, “Combination therapy for the treatment of neoplasms” (priority 2003, published 2007).
Where a name gives a salt, the structure may show the parent alone. Read-outs that look alike come from different tables or passages of the source.

Key:
Type in all cases: cell-based
HCT116 cells = test: Anti-proliferation assay (Alamar Blue metabolism), HCT116; conditions: Homo sapiens, read-out: Percent inhibition of Alamar Blue Metabolism
Protocol: (§1) Itraconazole was obtained from […].). Stock solutions (1000×) of each compound were prepared in DMSO and stored at -20° C. Master stock plates of 2-fold serial dilutions of individual compounds were prepared in 384-well plates. Combination matrices of test compounds were generated from these master stock plates by dilution into growth media described above. […] The combination matrices were used immediately and discarded. The anti-proliferation assays were performed in 384 well plates. […] Cells were diluted in culture media such that 3,000 SKMEL cells, or 1,500 cells for all the other cell lines, were delivered in 35 μl of media into each assay well. […] Then, 4.5 μl of 10× stock solutions from the combination matrices were added to 40 μl of culture media. […] Quantification, using the LJL Analyst AD reader (LJL Biosystems), was taken in the middle of the well with high attenuation, a 100 msec read time, an excitation filter at 530 nm, and an emission filter at 575 nm. For some experiments, quantification was performed using a Wallac Victor^2 reader. Measurements were taken at the top of the well with stabilized energy lamp control; a 100 msec read time, an excitation filter at 530 nm, and an emission filter at 590 nm.

A549 cells = test: Anti-proliferation assay (Alamar Blue metabolism), A549; conditions: Homo sapiens, read-out: Percent inhibition of Alamar Blue Metabolism
Protocol: as §1

DU145 cells = test: Anti-proliferation assay (Alamar Blue metabolism), DU145; conditions: Homo sapiens, DU-145; read-out: Percent inhibition of Alamar Blue Metabolism
Protocol: as §1

SKMEL-28 cells = test: Anti-proliferation assay (Alamar Blue metabolism), SKMEL-28; conditions: Homo sapiens, SK-MEL-28; read-out: Percent inhibition of Alamar Blue Metabolism
Protocol: as §1

COC(=O)C1=C(C)NC(C)=C(C(=O)OCCN(C)Cc2ccccc2)C1c1cccc([N+](=O)[O-])c1 (centres unmarked) [Nicardipine, 2-(benzyl-methylamino)ethyl methyl 1,4-dihydro-2,6-dimethyl-4-(m-nitrophenyl)-3,5-pyridinedicarboxylate monohydrochloride]
inhibition at 0.3 µM (HCT116 cells; HCT-116, itraconazole 0 μM, nicardipine 0.3 μM): 2.6% | inhibition at 0.61 µM (HCT116 cells; HCT-116, itraconazole 0 μM, nicardipine 0.61 μM): 1.4% | inhibition at 1.2 µM (HCT116 cells; HCT-116, itraconazole 0 μM, nicardipine 1.2 μM): 2.5% | inhibition at 2.4 µM (HCT116 cells; HCT-116, itraconazole 0 μM, nicardipine 2.4 μM): 5.2% | inhibition at 4.8 µM (HCT116 cells; HCT-116, itraconazole 0 μM, nicardipine 4.8 μM): 7.5% | inhibition at 9.7 µM (HCT116 cells; HCT-116, itraconazole 0 μM, nicardipine 9.7 μM): 9.7% | inhibition at 19 µM (HCT116 cells; HCT-116, itraconazole 0 μM, nicardipine 19 μM): 25.2% | inhibition at 39 µM (HCT116 cells; HCT-116, itraconazole 0 μM, nicardipine 39 μM): 81.7%

CC(C)COCC(CN(Cc1ccccc1)c1ccccc1)N1CCCC1 (stereo not drawn) [Bepridil, beta-((2-methylpropoxy)methyl)-N-phenyl-N-(phenylmethyl)-1-pyrrolidineethanamine]
inhibition at 1.5 µM (HCT116 cells; HCT-116, itraconazole 0 μM, bepridil 1.5 μM): 5.1% | inhibition at 3 µM (HCT116 cells; HCT-116, itraconazole 0 μM, bepridil 3 μM): 17.4% | inhibition at 6.1 µM (HCT116 cells; HCT-116, itraconazole 0 μM, bepridil 6.1 μM): 54% | inhibition at 12 µM (HCT116 cells; HCT-116, itraconazole 0 μM, bepridil 12 μM): 33.2% | inhibition at 24 µM (HCT116 cells; HCT-116, itraconazole 0 μM, bepridil 24 μM): 79% | inhibition at 48 µM (HCT116 cells; HCT-116, itraconazole 0 μM, bepridil 48 μM): 96.4%

CCC(C)n1ncn(-c2ccc(N3CCN(c4ccc(OCC5COC(Cn6cncn6)(c6ccc(Cl)cc6Cl)O5)cc4)CC3)cc2)c1=O (centres unmarked) [Itraconazole, itraconazole]
inhibition at 0.44 µM (A549 cells): 3.7% | inhibition at 0.87 µM (A549 cells): 11.5% | inhibition at 1.7 µM (A549 cells): 2.8% | inhibition at 3.5 µM (A549 cells): 8% | inhibition at 7 µM (A549 cells): 6.3% | inhibition at 14 µM (A549 cells): 7.4% | inhibition at 28 µM (A549 cells): 9.7% | inhibition at 0.44 µM (DU145 cells): -1.6% | inhibition at 0.87 µM (DU145 cells): 4.9% | inhibition at 1.7 µM (DU145 cells): -4.2% | inhibition at 3.5 µM (DU145 cells): -10.1% | inhibition at 7 µM (DU145 cells): -13% | inhibition at 14 µM (DU145 cells): -4.3% | inhibition at 28 µM (DU145 cells): -4.6% | inhibition at 0.44 µM (HCT116 cells; HCT-116, amiodarone 0 μM, itraconazole 0.44 μM): -2.8% | inhibition at 0.87 µM (HCT116 cells; HCT-116, amiodarone 0 μM, itraconazole 0.87 μM): 1.9% | inhibition at 1.7 µM (HCT116 cells; HCT-116, amiodarone 0 μM, itraconazole 1.7 μM): 8.5% | inhibition at 3.5 µM (HCT116 cells; HCT-116, amiodarone 0 μM, itraconazole 3.5 μM): 17.5% | inhibition at 7 µM (HCT116 cells; HCT-116, amiodarone 0 μM, itraconazole 7 μM): 20.4% | inhibition at 14 µM (HCT116 cells; HCT-116, amiodarone 0 μM, itraconazole 14 μM): 19.1% | inhibition at 28 µM (HCT116 cells; HCT-116, amiodarone 0 μM, itraconazole 28 μM): 16% | inhibition at […] (HCT116 cells; HCT-116, amiodarone 0 μM, itraconazole […]): -0.7% | inhibition at 0.44 µM (HCT116 cells; HCT-116, itraconazole 0.44 μM, bepridil 0 μM): -1.4% | inhibition at 0.44 µM (HCT116 cells; HCT-116, itraconazole 0.44 μM, nicardipine 0 μM): -0.5% | inhibition at 0.87 µM (HCT116 cells; HCT-116, itraconazole 0.87 μM, bepridil 0 μM): 13.3% | inhibition at 0.87 µM (HCT116 cells; HCT-116, itraconazole 0.87 μM, nicardipine 0 μM): 12.3% | inhibition at 1.7 µM (HCT116 cells; HCT-116, itraconazole 1.7 μM, bepridil 0 μM): 26.4% | inhibition at 1.7 µM (HCT116 cells; HCT-116, itraconazole 1.7 μM, nicardipine 0 μM): 15.4% | inhibition at 3.5 µM (HCT116 cells; HCT-116, itraconazole 3.5 μM, bepridil 0 μM): 30.3% | inhibition at 3.5 µM (HCT116 cells; HCT-116, itraconazole 3.5 μM, nicardipine 0 μM): 20.1% | inhibition at 7 µM (HCT116 cells; HCT-116, itraconazole 7 μM, bepridil 0 μM): 33.1% | inhibition at 7 µM (HCT116 cells; HCT-116, itraconazole 7 μM, nicardipine 0 μM): 32.7% | inhibition at 14 µM (HCT116 cells; HCT-116, itraconazole 14 μM, bepridil 0 μM): 17.8% | inhibition at 14 µM (HCT116 cells; HCT-116, itraconazole 14 μM, nicardipine 0 μM): 19.8% | inhibition at 28 µM (HCT116 cells; HCT-116, itraconazole 28 μM, bepridil 0 μM): 17.2% | inhibition at 28 µM (HCT116 cells; HCT-116, itraconazole 28 μM, nicardipine 0 μM): 22.4% | inhibition at […] (HCT116 cells; HCT-116, itraconazole […], bepridil 0 μM): 5.8% | inhibition at […] (HCT116 cells; HCT-116, itraconazole […], nicardipine 0 μM): 3% | inhibition at 0.44 µM (SKMEL-28 cells): 1.5% | inhibition at 0.87 µM (SKMEL-28 cells): 4.4% | inhibition at 1.7 µM (SKMEL-28 cells): 6.6% | inhibition at 3.5 µM (SKMEL-28 cells): 10.4% | inhibition at 7 µM (SKMEL-28 cells): 12.6% | inhibition at 14 µM (SKMEL-28 cells): 14% | inhibition at 28 µM (SKMEL-28 cells): 15%
